# Source: ChEMBL document CHEMBL4651402, “Screening of ~5500 FDA-approved drugs and clinical candidates for anti-SARS-CoV-2 activity” (2021)
# System: SARS-CoV-2
# Assay: microbe, parasite or virus in culture
# Details: Severe acute respiratory syndrome coronavirus 2, Vero C1008, 48 h
SMILES,IC50 [µM],IC50 (read-out: pIC50 (converted)) [µM]
NC(=O)[C@@H](CCC(F)(F)F)N(Cc1ccc(-c2ncon2)cc1F)S(=O)(=O)c1ccc(Cl)cc1,> 20,> 20
CCC(C)(C)/N=C(\NC#N)Nc1cccnc1,> 20,> 20
CO[C@H]1C[C@H](O[C@H]2[C@H](C)[C@@H](O[C@@H]3O[C@H](C)C[C@H](N(C)C)[C@H]3OC(C)=O)[C@@H](C)C[C@@]3(CO3)C(=O)[C@H](C)[C@H](OC(C)=O)[C@@H](C)[C@@H](C)OC(=O)[C@@H]2C)O[C@@H](C)[C@@H]1OC(C)=O,> 20,> 20
N#Cc1ccccc1-c1cc(-c2ccccn2)cn(-c2ccccc2)c1=O,> 20,> 20
CCCC(=O)OC1(C(=O)CO)CCC2C3CCC4=CC(=O)CCC4(C)C3C(O)CC21C (centres undefined),> 20,> 20
C[C@@H]1O[C@@H](O[C@@H]2C=C3CCC4C(CC[C@]5(C)[C@@H](c6ccc(=O)oc6)CC[C@]45O)[C@@]3(C)CC2)[C@H](O)[C@H](O)[C@H]1O (some centres undefined),> 20,> 20
CCCCCCCCCCCCCCCC(=O)OCC(NC(=O)C(Cl)Cl)C(O)c1ccc([N+](=O)[O-])cc1 (centres undefined),> 20,> 20
CC(C)(C)c1cc2c(cc1Cl)C=C(C(=O)O)C(C(F)(F)F)O2 (centres undefined),> 20,> 20
NCCCN,> 20,> 20
O=c1oc2cc(O)ccc2c2ccc(O)cc12,> 20,> 20
NC(=O)NC(CCC(=O)O)C(=O)O (centres undefined),> 20,> 20
COc1ccc(C(=O)OC2C[C@H]3CC[C@H](C2)N3C)cc1OC (some centres undefined),> 20,> 20
Nc1nc(O)c2c(n1)NCC(CNc1ccc(C(=O)N[C@@H](CCC(=O)O)C(=O)O)cc1)N2 (some centres undefined),> 20,> 20
CCCCCCCC(=O)N[C@H](CN1CCCC1)[C@H](O)c1ccc2c(c1)OCCO2,> 20,> 20
C=C(C)[C@@H]1[C@H]2OC(=O)[C@H]1[C@]1(O)C[C@H]3O[C@]34C(=O)O[C@H]2[C@]14C,> 20,> 20
CCNC(=O)C[C@H]1N=C(c2ccc(Cl)cc2)c2cc(OC)ccc2-n2c(C)nnc21,> 20,> 20
c1ccc2c3c([nH]c2c1)[C@H]1[C@H]2CC[C@H]([C@@H]4CCCN[C@@H]42)N1CC3,> 20,> 20
CCC[C@H](NC(=O)[C@@H]1[C@H]2CCC[C@H]2CN1C(=O)[C@@H](NC(=O)[C@@H](NC(=O)c1cnccn1)C1CCCCC1)C(C)(C)C)C(=O)C(=O)NC1CC1,> 20,> 20
CC(C)(C)C#Cc1cc(N(C(=O)[C@H]2CC[C@H](C)CC2)[C@H]2CC[C@@H](O)CC2)c(C(=O)O)s1,> 20,> 20

SMILES,IC50 [µM],IC50 (read-out: pIC50 (converted)) [µM]
Cc1nnc(C(=O)NC(C)(C)c2nc(C(=O)NCc3ccc(F)cc3)c(O)c(=O)n2C)o1,> 20,> 20
COC(=O)CCC(C)C1CCC2C3CC[C@@H]4C[C@H](O)CC[C@]4(C)C3C[C@H](O)[C@]12C (some centres undefined),> 20,> 20
CC(=O)N(O)C/C=C/c1cccc(Oc2ccccc2)c1,> 20,> 20
CC(C)C[C@H](NC(=O)N1CCCCCC1)C(=O)N[C@H](Cc1cn(C)c2ccccc12)C(=O)N[C@H](Cc1ccccn1)C(=O)O,> 20,> 20
c1ccc2c(c1)CN1CCCC1=N2,> 20,> 20
NC(=O)C1CC2(NC(=O)NC2=O)c2cc(F)ccc2O1 (centres undefined),> 20,> 20
C=C(NC(=O)C(=C)NC(=O)c1csc(C2=N[C@H]3c4csc(n4)[C@H]4NC(=O)c5csc(n5)[C@H]([C@@](C)(O)[C@@H](C)O)NC(=O)[C@H]5CSC(=N5)/C(=C\C)NC(=O)[C@H]([C@@H](C)O)NC(=O)c5csc(n5)[C@]3(CC2)NC(=O)[C@H](C)NC(=O)C(=C)NC(=O)[C@H](C)NC(=O)[C@H](C(C)CC)N[C@@H]2C=Cc3c([C@H](C)O)cc(nc3[C@H]2O)C(=O)O[C@@H]4C)n1)C(N)=O (some centres undefined),> 20,> 20
O=C(O)[C@]1(O)C[C@H](O)[C@@H](O)[C@@H](O)C1,> 20,> 20
CC(=O)OC1CC2CCC3C(CCC4(C)C3CC(N3CC[N+](C)(C)CC3)C4OC(C)=O)C2(C)CC1N1CC[N+](C)(C)CC1 (centres undefined),> 20,> 20
CNc1ccc(-c2ccc3cc(OC[C@H](O)CF)ccc3n2)cc1,> 20,> 20
[2H]c1c([2H])c(-c2ccc(F)cc2F)c([2H])c(C(=O)O)c1O,> 20,> 20
O=C(O)[C@H]1CCCC[C@]1(O)c1ccccc1,> 20,> 20
CC#CC(=O)N1CCC[C@@H]1c1nc(-c2ccc(C(=O)Nc3ccccn3)cc2)c2c(N)nccn12,> 20,> 20
C[C@@H](CC(C(N)=O)(c1ccccc1)c1ccccc1)N(C)C,> 20,> 20
Cn1cc(Nc2nccc(N3CC4CCC(C3)N4C(=O)[C@@H]3CC3(F)F)n2)cn1,> 20,> 20
COCCOC(=O)C1=C(C)NC(C)=C(C(=O)OCC=Cc2ccccc2)C1c1cccc([N+](=O)[O-])c1 (centres undefined),> 20,> 20
CC(C)NCC(O)c1ccc([N+](=O)O)cc1 (centres undefined),> 20,> 20
C#CCC/C(O)=C(\C#N)C(=O)Nc1ccc(C(F)(F)F)cc1,> 20,> 20
C[C@]12CC[C@H](O)C[C@@H]1CC[C@@H]1C2CC[C@]2(C)[C@@H](C3=CC(=O)OC3)CC[C@]12O (some centres undefined),> 20,> 20

SMILES,IC50 [µM],IC50 (read-out: pIC50 (converted)) [µM]
CCC[N+]12C3C[C@@H]([C@H](CC)[C@H]1O)[C@H]1[C@H](O)[C@]4(C[C@@H]12)c1ccccc1N(C)[C@@H]34,> 20,> 20
COc1c(N2CCC/C(=C(/F)CN)C2)c(F)cc2c(=O)c(C(=O)O)cn(C3CC3)c12,> 20,> 20
CC(C)OC(=O)[C@H](C)N[P@](=S)(OC[C@H]1O[C@@H](n2ccc(=O)[nH]c2=O)[C@](C)(O)[C@@H]1O)Oc1ccccc1,> 20,> 20
CC(CCC(=O)NCCS(=O)(=O)O)C1CCC2C3C[C@H](O)[C@@H]4C[C@H](O)CC[C@]4(C)C3CC[C@]12C (some centres undefined),> 20,> 20
NC(=O)OC[C@H](O)c1ccccc1Cl,> 20,> 20
CC[C@H]1OC(=O)C[C@@H](O)[C@H](C)[C@@H](O[C@@H]2O[C@H](C)[C@@H](O[C@H]3C[C@@](C)(O)[C@@H](O)[C@H](C)O3)[C@H](N(C)C)[C@H]2O)[C@@H](CC=O)C[C@@H](C)C(=O)/C=C\C(C)=C/[C@@H]1CO[C@@H]1O[C@H](C)[C@@H](O)[C@@H](OC)[C@H]1OC,> 20,> 20
CC(C)n1c(/C=C/[C@@H](O)C[C@@H](O)CC(=O)O)c(-c2ccc(F)cc2)c2ccccc21.CC(C)n1c(/C=C/[C@H](O)C[C@H](O)CC(=O)O)c(-c2ccc(F)cc2)c2ccccc21,> 20,> 20
O=C(OC1C[C@@H]2CC3C[C@@H](C1)N2CC3=O)c1c[nH]c2ccccc12 (some centres undefined),> 20,> 20
CCCCC(C)(O)C/C=C/C1C(O)CC(=O)C1CC/C=C/CCC(=O)OC (centres undefined),> 20,> 20
CCn1c(=Cc2cccc[n+]2CC)sc(=C2Sc3ccccc3N2C)c1=O,> 20,> 20
CCC1C(=O)Nc2ccc(F)cc2N1C(=O)OC(C)C (centres undefined),> 20,> 20
CC(=C(CCO)SSCC1CCCO1)N(C=O)Cc1cnc(C)nc1N (centres undefined),> 20,> 20
CN1CCN2c3ccccc3Cn3cccc3[C@@H]2C1,> 20,> 20
CC[C@@H](C)C(=O)O[C@H]1[C@H](O)[C@H]2[C@@H](CN3C[C@@H](C)CC[C@H]3[C@@]2(C)O)[C@@H]2C[C@]34O[C@@]5(O)[C@@H](OC(=O)[C@](C)(O)CC)CC[C@@]3(C)[C@@H]5[C@@H](OC(C)=O)[C@@H](OC(C)=O)[C@H]4[C@@]21O,> 20,> 20
C[C@H]1CCC[C@H](C)N1CCCCNC(=O)C(Oc1ccccc1)c1ccccc1 (some centres undefined),> 20,> 20
C[C@@]1(c2nc3cccc(C(N)=O)c3[nH]2)CCCN1,> 20,> 20
O=C(O)C1(c2ccc3c(c2)OC[C@H](Cc2ccc(-c4ccccc4)cc2)[C@H]3O)CCCC1,> 20,> 20
CC(=O)N[C@@H](CC(C)C)C(=O)O,> 20,> 20
CNC=O,> 20,> 20
